One assay deals with T1, IDO in A431 cells (Homo sapiens, UniProt P14902).
T1 construct: endogenous in cells; host or cells: A431 cells, IFN-γ stimulated
The assay is described as follows: IDO cell-based assay, kynurenine production in IFN-γ stimulated A431 cells. The conditions noted are these: A-431, 24 h; final concentration of the compound 10 μM; rate relative to culture without compound. Summed up: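 Kynurenine output was read by absorbance at 460 nm after p-dimethylbenzaldehyde/trichloroacetic acid reagent, background-corrected, and given as % of untreated wells. Before the read, cells in 178 μM L-tryptophan medium had 1 h compound preincubation, then 24 h IFN-γ stimulation (added as 100 ng/mL dilution).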

Assay [1] concerns the target rhTDO (recombinant human TDO) (Homo sapiens, UniProt P48775). Nature of the assay: Enzyme assay using rhTDO (rate of kynurenine production). It is filed as biochemical. The conditions noted are these: 2 h, read-out: rhTDO-mediated kynurenine production; for remaining activity at 10 µM: final concentration of the compound 10 μM, rate relative to reaction without compound. Summed up:
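Kynurenine output, as percent of untreated control after background subtraction, read at 490 nm with p-dimethylbenzaldehyde following TCA quench and 15 min heating at 50 °C. Reaction: rhTDO with compound, 10 min preincubation then 120 min at 37 °C, started by 20 mM tryptophan stock, in phosphate/ascorbate/methylene blue/catalase.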

A further assay addresses T2, TDO in A172 cells (Homo sapiens, UniProt P48775).
T2 construct: endogenous in cells; host or cells: A172 cells
Nature of the assay: TDO cell-based assay, kynurenine production in A172 cells. The conditions noted are these: A 172; final concentration of the compound 10 μM; rate relative to culture without compound. The procedure, abridged: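 A172 cells were preincubated with compound for 1 h, then given L-tryptophan (final 524 μM) for 24 h at 37 °C. Kynurenine was read at 460 nm after p-dimethylbenzaldehyde/TCA reagent, background-subtracted, and expressed as % of no-compound production.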

Assay [2] has as its target rhIDO (recombinant human IDO) (Homo sapiens, UniProt P14902). The assay is described as follows: Enzyme assay using rhIDO (rate of kynurenine production). Format: biochemical. The conditions noted are these: 2 h; final concentration of the compound 10 μM; rate relative to reaction without compound; read-out: rhIDO-mediated kynurenine production. Summed up: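 Kynurenine formation, expressed as % of uncompounded reaction after background subtraction, was read by absorbance at 490 nm following TCA stop, 50 °C hydrolysis and Ehrlich-type p-dimethylbenzaldehyde staining. Recombinant human IDO with ascorbate/methylene blue/catalase was pre-exposed to compound 10 min, then reacted 120 min at 37 °C after adding 2 mM tryptophan stock.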

Structures can show the parent of a compound that is named as a salt.

T2 sequence (P48775 whole entry): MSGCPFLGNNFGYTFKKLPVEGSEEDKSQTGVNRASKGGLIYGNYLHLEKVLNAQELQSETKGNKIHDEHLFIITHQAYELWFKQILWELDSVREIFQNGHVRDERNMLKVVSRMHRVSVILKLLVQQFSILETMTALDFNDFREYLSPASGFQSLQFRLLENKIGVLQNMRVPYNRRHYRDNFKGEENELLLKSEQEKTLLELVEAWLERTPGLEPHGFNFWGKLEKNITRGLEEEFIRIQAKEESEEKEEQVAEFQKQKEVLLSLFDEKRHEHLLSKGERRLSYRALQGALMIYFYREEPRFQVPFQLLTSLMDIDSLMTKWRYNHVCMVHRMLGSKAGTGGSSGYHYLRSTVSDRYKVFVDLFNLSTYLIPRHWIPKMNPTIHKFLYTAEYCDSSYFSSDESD
rhTDO (recombinant human TDO), sequence (P48775 whole entry): as above
rhIDO (recombinant human IDO), sequence (P14902 whole entry): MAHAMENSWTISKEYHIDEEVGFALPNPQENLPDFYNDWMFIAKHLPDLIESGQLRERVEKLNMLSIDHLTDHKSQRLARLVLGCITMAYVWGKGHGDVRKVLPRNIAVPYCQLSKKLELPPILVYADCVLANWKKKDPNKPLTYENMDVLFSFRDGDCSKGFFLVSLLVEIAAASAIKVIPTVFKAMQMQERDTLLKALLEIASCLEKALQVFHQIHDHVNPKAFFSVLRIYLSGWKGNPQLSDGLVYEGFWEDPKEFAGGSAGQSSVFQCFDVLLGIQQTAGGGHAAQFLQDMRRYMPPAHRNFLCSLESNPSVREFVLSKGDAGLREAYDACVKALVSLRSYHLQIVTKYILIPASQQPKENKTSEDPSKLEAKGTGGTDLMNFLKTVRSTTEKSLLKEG
T1 sequence (P14902 whole entry): as above

In the case of `Fc1cccc(CN2CN=C(SCc3ccccc3CSC3=NCN(Cc4cccc(F)c4)CN3)NC2)c1` [Compound 45], the remaining activity at 10 µM was 13% on IDO in A431 cells, 33% in assay [1], 0% at TDO in A172 cells and 65% in assay [2].

Take `N=C(N)SCc1ccc(C(F)(F)F)cc1CSC(=N)N` [Compound 46, dihydrobromide]: the remaining activity at 10 µM at IDO in A431 cells turned out to be 10%; in assay [1], 14%; at TDO in A172 cells, 24%; in assay [2] it was 3%.

With `FC(F)(F)c1ccc(CSC2=NCN(CCc3ccc(Cl)c(Cl)c3)CN2)c(CSC2=NCN(CCc3ccc(Cl)c(Cl)c3)CN2)c1` [Compound 47, 6,6′-(((4-(Trifluoromethyl)-1,2-phenylene)bis(methylene))bis(sulfanediyl))bis(3-(3,4-dichlorophenethyl)-1,2,3,4-tetrahydro-1,3,5-triazine)], the remaining activity at 10 µM at IDO in A431 cells was 15%; in assay [1] it was 53%; at TDO in A172 cells it was 45%; in assay [2], 16%.

`FC(F)(F)c1ccc(CSC2=NCN(CCc3ccccc3Cl)CN2)c(CSC2=NCN(CCc3ccccc3Cl)CN2)c1` [Compound 48, 6,6′-(((4-(Trifluoromethyl)-1,2-phenylene)bis(methylene))bis(sulfanediyl))bis(3-(2-chlorophenethyl)-1,2,3,4-tetrahydro-1,3,5-triazine)]: the remaining activity at 10 µM was found to be 63% on IDO in A431 cells, 73% in assay [1], 71% on TDO in A172 cells and 80% in assay [2].

For the molecule `N=C(N)SCCc1ccccc1CSC(=N)N` [Compound 51, 2-(2-(Carbamimidoylthio)ethyl)benzyl carbamimidothioate dihydrobromide], the remaining activity at 10 µM on IDO in A431 cells turned out to be 23%; in assay [1], 13%; at TDO in A172 cells, 25%; in assay [2] it was 19%.

For `Clc1ccccc1CCN1CN=C(SCc2ccc(Br)cc2CSC2=NCN(CCc3ccccc3Cl)CN2)NC1` [Compound 53, 6,6′-(((4-Bromo-1,2-phenylene)bis(methylene))bis(sulfanediyl))bis(3-(2-chlorophenethyl)-1,2,3,4-tetrahydro-1,3,5-triazine)], the remaining activity at 10 µM on IDO in A431 cells was determined as 5%; in assay [1], 19%; at TDO in A172 cells, 17%; in assay [2], 16%.

As to `Clc1ccc(CN2CN=C(SCc3ccc(Br)cc3CSC3=NCN(Cc4ccc(Cl)c(Cl)c4)CN3)NC2)cc1Cl` [Compound 54, 6,6′-(((4-Bromo-1,2-phenylene)bis(methylene))bis(sulfanediyl))bis(3-(3,4-dichlorobenzyl)-1,2,3,4-tetrahydro-1,3,5-triazine)], the remaining activity at 10 µM on IDO in A431 cells was found to be 4%; in assay [1], 14%; at TDO in A172 cells, 6%; in assay [2], 13%.

For the molecule `COC(=O)c1ccccc1CSC(=N)N` [Compound 55, Methyl 2-((carbamimidoylthio)methyl)benzoate hydrochloride], the remaining activity at 10 µM turned out to be 73% on IDO in A431 cells, 111% in assay [1], 121% on TDO in A172 cells and 91% in assay [2].

With `Clc1ccc(CN2CN=C(SCc3cc(Cl)c(Cl)cc3CSC3=NCN(Cc4ccc(Cl)c(Cl)c4)CN3)NC2)cc1Cl` [Compound 56, 6,6′-(((4,5-Dichloro-1,2-phenylene)bis(methylene))bis(sulfanediyl))bis(3-(3,4-dichlorobenzyl)-1,2,3,4-tetrahydro-1,3,5-triazine)], the remaining activity at 10 µM worked out at 4% at IDO in A431 cells, 35% in assay [1], 2% on TDO in A172 cells and 41% in assay [2].

For the molecule `Brc1ccc(CS/C(=N/C2CCCCC2)NC2CCCCC2)c(CS/C(=N/C2CCCCC2)NC2CCCCC2)c1` [Compound 57, (4-Bromo-1,2-phenylene)bis(methylene) (E,E)-bis(N,N′-dicyclohexylcarbamimidothioate) dihydrobromide], the remaining activity at 10 µM at IDO in A431 cells turned out to be 3%; in assay [1] it was 80%; on TDO in A172 cells it was 12%; in assay [2], 83%.

Take `c1ccc(CS/C(=N/C2CCCCC2)NC2CCCCC2)c(CS/C(=N/C2CCCCC2)NC2CCCCC2)c1` [Compound 58, 1,2-Phenylenebis(methylene) (E,E)-bis(N,N′-dicyclohexylcarbamimidothioate) dihydrobromide]: the remaining activity at 10 µM is 1% at IDO in A431 cells, 83% in assay [1], 9% on TDO in A172 cells and 73% in assay [2].

In the case of `NC(=O)SCc1ccccc1CS/C(N)=N/c1ccc(F)c(Cl)c1` [Compound 59, (E)-S-(2-(((N′-(3-Chloro-4-fluorophenyl)carbamimidoyl)thio)methyl)benzyl) carbamothioate hydrobromide], the remaining activity at 10 µM at IDO in A431 cells is 1%; in assay [1] it was 1%; on TDO in A172 cells, 4%; in assay [2], -3%.

Consider `Brc1ccc(CSC2=NCN(CCC3CCCCC3)CN2)c(CSC2=NCN(CCC3CCCCC3)CN2)c1` [Compound 60, 6,6′-(((4-Bromo-1,2-phenylene)bis(methylene))bis(sulfanediyl))bis(3-(2-cyclohexylethyl)-1,2,3,4-tetrahydro-1,3,5-triazine)], for which the remaining activity at 10 µM on IDO in A431 cells was determined as 1%; in assay [1] it was 6%; at TDO in A172 cells it was 4%; in assay [2], 6%.

In the case of `Clc1cc(CSC2=NCN(CCC3CCCCC3)CN2)c(CSC2=NCN(CCC3CCCCC3)CN2)cc1Cl` [Compound 61, 6,6′-(((4,5-Dichloro-1,2-phenylene)bis(methylene))bis(sulfanediyl))bis(3-(2-cyclohexylethyl)-1,2,3,4-tetrahydro-1,3,5-triazine)], the remaining activity at 10 µM on IDO in A431 cells was 1%; in assay [1] it was 4%; at TDO in A172 cells it was -11%; in assay [2], 7%.

Consider `CNC(=O)Cc1ccccc1CSC(=N)N` [Compound 62, 2-(2-(Methylamino)-2-oxoethyl)benzyl carbamimidothioate hydrobromide], for which the remaining activity at 10 µM at IDO in A431 cells is 86%; in assay [1] it was 21%; on TDO in A172 cells, 56%; in assay [2], 58%.

For `N/C(=N\c1ccc(F)cc1F)SCc1cc(Cl)c(Cl)cc1CS/C(N)=N/c1ccc(F)cc1F` [Compound 63, (4,5-Dichloro-1,2-phenylene)bis(methylene) (E,E)-bis(N′-(2,4-difluorophenyl)carbamimidothioate) dihydrobromide], the remaining activity at 10 µM at IDO in A431 cells turned out to be 2%; at TDO in A172 cells it was 5%; in assay [2], 0%. Also, the remaining activity at 3 µM in assay [1] (final concentration of the compound 3 μM (data with *)) came out at 16%.

Regarding `N=C(N)SCc1ccccc1CC(=O)NCCc1ccccc1` [Compound 64, 2-(2-Oxo-2-(phenethylamino)ethyl)benzyl carbamimidothioate hydrobromide], the remaining activity at 10 µM at IDO in A431 cells was found to be 102%; in assay [1] it was 42%; at TDO in A172 cells, 76%; in assay [2], 81%.

Consider `N=C(N)SCc1ccccc1CC(=O)NCC1CCCCC1` [Compound 65, 2-(2-((Cyclohexylmethyl)amino)-2-oxoethyl)benzyl carbamimidothioate hydrobromide], for which the remaining activity at 10 µM at IDO in A431 cells was 104%; in assay [1], 76%; on TDO in A172 cells, 94%; in assay [2], 89%.

In the case of `N=C(N)SCc1ccccc1CC(=O)NCCc1ccccc1Cl` [Compound 66, 2-(2-((2-chlorophenethyl)amino)-2-oxoethyl)benzyl carbamimidothioate hydrobromide], the remaining activity at 10 µM stood at 101% at IDO in A431 cells, 49% in assay [1], 74% at TDO in A172 cells and 80% in assay [2].

With `N#Cc1ccc(CNC(=O)Cc2ccccc2CSC(=N)N)cc1` [Compound 67, 2-(2-((4-Cyanobenzyl)amino)-2-oxoethyl)benzyl carbamimidothioate hydrobromide], the remaining activity at 10 µM is 36% at IDO in A431 cells, 46% in assay [1], 64% on TDO in A172 cells and 39% in assay [2].

(Values after patent US12209079B2 (GENERAL INCORPORATED ASSOCIATION PHARMA VALLEY PROJECT …, priority 2017, dated 2025).)
